These results are taken from patent US7514432B2, “Compounds and methods of treating cell proliferative diseases, retinopathies and arthritis” (Exonhit Therapeutics SA, priority 2003, dated 2009).

What all share (format): cell-based
Test [1] deals with REF cells. In words: Lamellipodia/ruffles formation after wounding. As for the experimental part:
This assay has been described by Nobes & Hall (J. Cell Biol., 1999). • Preparation of REF cells: REF cells are prepared from 15-18 E14 embryos. Briefly, the head, tail and viscerae are removed from the embryo. Only the torso is kept, sliced into small squares, washed, treated with trypsin-EDTA for 20 min. at 37° C., resuspended in medium, counted and plated. After 24 h, the cells are trypsinized and frozen in cryovials. 48 h before the wound healing assay, the cells are plated on coverslips. The day of the experiment, the cells are treated with the test compounds or DMSO alone. After 30 min., a scrape is done in the center of the coverslip using a small pipette tip. The cells are washed and fresh medium containing the compound or the DMSO is added. • Time-Lapse microscopy: The dishes containing the scraped coverslips and the treatment medium, sealed with parafilm is put under a thermostated microscope (37° C.) coupled to a video camera and a computer. Microscope images were collected every 5 minutes and recorded using the OpenLab software. When the assay is terminated (after 4 to 24 hours), pictures and movies are analyzed using the Metamorphe software. The pictures were calibrated (pixel converted to μm), and the velocity and total distance covered were calculated after tracking 7 to 10 single cells on the movies. […] The position of each point was recorded. […]

Test [2] relates to quiescent Swiss 3T3 cells. In words: Compounds' effect on the actin cytoskeleton (Rac-induced ruffles). The settings on record: 30 min pre-treatment, subtoxic doses; osmotic shock 10 min (50% H2O). The procedure: FIG. 1: Study of compounds effect on the actin cytoskeleton. Quiescent Swiss 3T3 cells were treated for 30 minutes with various concentrations of the compounds and were then submitted to osmotic shock by 10 min. incubation in a medium containing 50% H2O. Cells were subsequently fixed, permeabilized and labeled with Phalloidin TRITC. 100 to 200 cells were counted under a microscope, and the percentage of cells displaying lamellipodia and ruffles was evaluated.
Quiescence of Swiss 3T3 cells: Cells are seeded at high density on coverslips in 5% FCS medium (special weak FCS). When cells become quiescent (after 6-10 days of culture), the medium is removed (a few microliters remaining in the well) and replaced with serum free medium. Cells are placed in the incubator overnight. […]
Immunofluorescence • Fixation and permeabilization: Medium is aspirated from the culture wells and replaced with fixation buffer (BRB80: 80 mM KPipes pH 6.8, 2 mM MgCl2, 5 mM EGTA, 0.3% paraformaldehyde). […] Mounting is allowed to dry at 37° C. for 1 h. • Quantification of the effect of the compounds: The total number of cells is counted under the microscope (at least three different fields, e.g. between 100 and 200 cells). The number of cells bearing the morphological features of interest is evaluated. The percentage of cells bearing the morphological features of interest is then calculated.

Test [3] relates to REF cells. In words: Wound healing assay (time-lapse microscopy). Particulars: time lapse 8 hours. The procedure: FIG. 4: Migration assays. (A) Wound healing assay in REF cells. 7.6 10^4 cells were plated on coverslips 48 hours before the experiment. The cells were pre-treated for 30 min. with the compounds, and then a scrape was done using a pipette tip. The scraped coverslips in treatment medium were put under a thermostated microscope coupled to a video camera. Movies were analyzed as described in material and methods, and velocity and total distance covered by the cells were evaluated. Bar graphs represent the mean±SEM of 2 to 4 experiments. (B) Boyden chamber migration assay in HMEC1, NIH3T3 and MDA-MB-231 cells. […] After labeling, cells were washed with HBSS and fluorescence was read in a fluorescence plate reader. Fluorescence values were normalized against the fluorescence obtained for the 1% DMSO control. […]
This assay has been described by Nobes & Hall (J. Cell Biol., 1999). • Preparation of REF cells: REF cells are prepared from 15-18 E14 embryos. […] Only the torso is kept, sliced into small squares, washed, treated with trypsin-EDTA for 20 min. at 37° C., resuspended in medium, counted and plated. […] Microscope images were collected every 5 minutes and recorded using the OpenLab software. When the assay is terminated (after 4 to 24 hours), pictures and movies are analyzed using the Metamorphe software. […] The position of each point was recorded. […]

With `Cl.Cl.O=c1cc(CN2CCOCC2)occ1OCCCCCSc1ccnc2cc(C(F)(F)F)ccc12` [EHT 1864, 5-(5-(7-(Trifluoromethyl)quinolin-4-ylthio)pentyloxy)-2-(morpholinomethyl)-4H-pyran-4-one dihydrochloride], the “lamellipodia/ruffles formation after wounding” value in test [1] is “dose-dependent inhibition of lamellipodia/ruffles formation”. The “formation of ruffles induced by Rac after osmotic shock” value in test [2] is “dose-dependently prevents formation of ruffles”. In test [3] (30 μM), the “decrease of migration of REF cells (velocity and total distance covered)” value is recorded as “about 48%”.
Regarding `CN1CCN(Cc2cc(=O)c(OCCCCCSc3ccnc4cc(C(F)(F)F)ccc34)co2)CC1.Cl.Cl.Cl` [EHT 9241, 5-(5-(7-(Trifluoromethyl)quinolin-4-ylthio)pentyloxy)-2-((4-methylpiperazin-1-yl)methyl)-4H-pyran-4-one trihydrochloride], in test [1], the “lamellipodia/ruffles formation after wounding” value is on record as “dose-dependent inhibition of lamellipodia/ruffles formation”. Besides, the “formation of ruffles induced by Rac after osmotic shock” value in test [2] is given as “dose-dependently prevents formation of ruffles”. Moreover, the “decrease of migration of REF cells (velocity and total distance covered)” value in test [3] (10 μM) is on record as 36%.
